Measured values: article PMC10298275, “Antiproliferative Activity and Impact on Human Gut Microbiota of New O-Alkyl Derivatives of Naringenin and Their Oximes” (International Journal of Molecular Sciences, 2023)
≈ marks a conversion by molar mass, not a printed value. Entries after “also recorded” stand apart in the source; their conditions may differ. Read-outs that look alike come from different tables or passages of the source.

How the values were obtained:
[1] = SRB assay, cytotoxicity; assay type: cell-based, mouse; details: mouse, 3T3-L1 cells; 3T3-L1, SRB, 24 h exposure, three independent repeats; read-out: Cytotoxicity (IC50 ± SD)
Method: (§1) The HT-29 cells (ATCC, Manassas, VA, USA) were cultured within α-MEM (IIET PAS, Wrocław, Poland) supplemented with 10% fetal bovine serum (Sigma, St. Louis, MO, USA), antimycotic (100 μg/mL penicillin, 100 μg/mL streptomycin and 0.25 μg/mL amphotericin) (Sigma) and 2 mM glutamine (Sigma). The 3T3-L1 cells (ATCC, Manassas, VA, USA) were cultivated using DMEM high-glucose medium (IIET PAS, Wrocław, Poland) supplemented as above. Both cell lines were cultured at 37 °C in an atmosphere of 5% CO2.
(§2) The sulforhodamine B (SRB) assay was performed according to a previously published protocol. Briefly, 1 × 10^4 HT-29 or 5 × 10^3 3T3-L1 cells were seeded into 96-well plates. After attaching to the plate surface, the cells were incubated with 100, 75, 50, 25, 10 or 1 µg/mL of the investigated compounds for 24 h. After this time, proteins were precipitated with trichloroacetic acid and stained with SRB. The absorbance was measured at 560 nm using a GloMax Discover Microplate Reader (Promega, Madison, WI, USA).

[2] = system: caspase 3/7 in HT-29 cells; assay: Caspase-Glo 3/7 Assay; assay type: cell-based, human; details: HT-29, 50 µg/mL; for caspase 3/7 activation: measured at 6, 12, 24 and 48 h
Method: The activity of two effector caspases 3 and 7 was analyzed using the Caspase-Glo 3/7 Assay (Promega) according to the recommendations of the manufacturer. The cells were seeded at a density of 1 × 10^4 per well for the test on a 96-well plate. Then, cells were incubated with A2, B2, A9, B9 and NG at a concentration of 50 µg/mL for 48 h. Half an hour before each measurement of caspase activity, an equal volume of Caspase-Glo 3/7 substrate solution was added to cells. The luminescence signals were detected using a GloMax Discover Microplate Reader at the 6th, 12th, 24th and 48th hours of the experiment. The reactions for each sample were repeated in triplicate and presented as the mean value.

[3] = system: HT-29 cells; assay: RealTime-Glo Annexin V Apoptosis and Necrosis Assay; assay type: cell-based, human; details: for annexin V luminescence and necrosis fluorescence signals versus untreated cells: HT-29, during 12 h incubation, applied concentrations 10-100 µg/mL
Method: The process of apoptosis was determined using the RealTime-Glo Annexin V Apoptosis and Necrosis Assay (Promega) according to the manufacturer’s protocol. Briefly, 1 × 10^4 HT-29 cells were seeded into a single well of a 96-well plate. After overnight incubation, the cells were treated with 10, 25, 50 and 100 µg/mL of the investigated compounds and detection reagent for 24 h. As a negative control, untreated cells were used. The luminescence, fluorescence and OD525 signals were detected at each hour of the first 12 h of incubation. The end measurement was performed at the 24th hour of the experiment. All samples were prepared in triplicate, and then their means were calculated.

[4] = SRB assay, cytotoxicity; assay type: cell-based, human; details: human, HT-29 cells; HT-29, SRB, 24 h exposure, three independent repeats; read-out: Cytotoxicity (IC50 ± SD)
Method: as §1, §2

[5] = system: Staphylococcus aureus ATCC 25923; assay: MIC, microdilution method; assay type: cell-based; details: S. aureus ATCC 25923, MHB, 18 h, 37 °C, tested 512 to 1 µg/mL
Method: (§3) Non-pathogenic reference strains representing the intestinal microbiome were used for the studies: Escherichia coli K12, Staphylococcus aureus ATCC 25923 and Enterococcus faecalis ATCC 29212. All strains were obtained from the collection of the Department of Microbiology at the Medical University of Wrocław.
(§4) The strains were received from the museum (−80 °C) and grown in tryptic soy broth (TSB, OXOID, Basingstoke, UK) under continuous shaking conditions (MaxQTM6000 incubator shaker, Thermo Scientific, Waltham, MA, USA) at 125 rpm at 37 °C. Then, they were moved to the growth media, namely tryptic soy agar (TSA, OXOID, Basingstoke, UK) and MacConkey agar (MC, Millipore, Darmstadt, Germany) for S. aureus or E. faecalis and E. coli, respectively.
(§5) A fresh 18–24 h culture was used for each study. For this purpose, a culture with a density of 1.5 × 10^8 CFU/mL in Mueller–Hinton broth (MHB, OXOID, Basingstoke, UK) was prepared and used for further microdilution studies.
(§6) The antimicrobial activity of the O-alkyl derivatives of naringenin and their oximes was tested in vitro using the microdilution method, showing the minimum inhibitory concentration (MIC), in accordance with the recommendations of the European Antimicrobial Susceptibility Testing Committee EUCAST [44]. MICs were determined in 96-well microdilution plates. The tests were carried out in MHB medium. The O-alkyl derivatives of naringenin and their oximes were tested in the concentration range of 512 to 1 µg/mL in a geometric process in MHB medium. The final concentration of the test strains in each test well was 5 × 10^5 CFU/mL. MICs were read after 18 h (for E. coli and S. aureus) and 24 h (for E. faecalis) incubation at 37 °C.
(§7) A strain growth control (tested strain in medium), background control for tested compounds (naringenin derivatives in MHB), medium control (only pure MHB) and compound solvent control (DMSO at test compound concentration, strain and MHB) were set for each experiment. Each test was set up with three independent experiments, each as three separate replicates.
(§8) The […], OD600, was measured in a plate reader (ASYS UVM340, BIOCHROM Ltd., Cambridge, UK). The background control of the tested compounds and the clean medium were included in the absorbance results.

[6] = system: Escherichia coli K12; assay: MIC, microdilution method; assay type: cell-based; details: E. coli K12, MHB, 18 h, 37 °C, tested 512 to 1 µg/mL
Method: as §3, §4, §5, §6, §7, §8

[7] = system: Enterococcus faecalis ATCC 29212; assay: MIC, microdilution method; assay type: cell-based; details: E. faecalis ATCC 29212, MHB, 24 h, 37 °C, tested 512 to 1 µg/mL
Method: as §3, §4, §5, §6, §7, §8

[8] = system: Staphylococcus aureus ATCC 25923; assay: MBC assay; assay type: cell-based; details: S. aureus ATCC 25923
Method: (§9) The minimum bactericidal concentration (MBC) was tested for all naringenin derivatives. First, 10 µL of medium was taken from the plate, on which the MIC was determined for the MIC value, the value below and the two values above. This volume was transferred to TSA or MC agar. After 18–24 h (depending on strain) incubation at 37 °C, colonies were counted. The concentration of test compounds at which no bacterial growth was observed was defined as the MBC value. Each experiment was repeated 3 times.

[9] = system: Escherichia coli K12; assay: MBC assay; assay type: cell-based; details: E. coli K12
Method: as §9

[10] = system: Enterococcus faecalis ATCC 29212; assay: MBC assay; assay type: cell-based; details: E. faecalis ATCC 29212
Method: as §9

[11] = system: HT-29 cells; assay: MTT assay, cell viability; assay type: cell-based, human; details: 24 h; for effect on colon adenocarcinoma cells (viability, MTT): HT-29, highest concentration 100 µg/mL; for reduction in cell viability: HT-29, MTT
Method: as §1
First, 1 × 10^4 HT-29 cells or 5 × 10^3 3T3-L1 cells were seeded into a 96-well plate and incubated for one night. Then, cells were treated with different concentrations of the investigated compounds within 24 h. Afterwards, the medium was replaced with a fresh medium containing 0.5 mg/mL of 3-(4,5-dimethylthiazol-2-yl)-2,5-diphenyl-2H-tetrazolium bromide (MTT, Sigma) and incubated for 2 h at 37 °C. After removing the medium, the formazan salts were dissolved in dimethyl sulfoxide (DMSO, Sigma), and the absorbance of the solution was measured at 560 nm using a plate reader.

[12] = system: 3T3-L1 cells; assay: SRB assay, cytotoxicity; assay type: cell-based, mouse; details: 3T3-L1, SRB, 24 h exposure, three independent repeats
Method: as §1, §2

[13] = system: HT-29 cells; set-up: method as in earlier work; details: ref 29 (Kocyigit et al.); cited from earlier work
[14] = system: HT-29 cells; assay: SRB assay, cytotoxicity; assay type: cell-based, human; details: HT-29, SRB, 24 h exposure, three independent repeats
Method: as §1, §2

[15] = Staphylococcus aureus, ATCC25923, read-out: MIC
[16] = Escherichia coli, read-out: MIC
[17] = Enterococcus faecalis, ATCC29212, read-out: MIC
[18] = Staphylococcus aureus, ATCC25923, read-out: MBC
[19] = Escherichia coli, read-out: MBC
[20] = Enterococcus faecalis, ATCC29212, read-out: MBC

| MIC [5] | MIC [5, 15] [µg/mL] | MIC [6, 16] [µg/mL] | MIC [7, 17] [µg/mL] | melting point [°C] | Structure (SMILES) | IC50 at 24 h [1] [µg/mL] | caspase 3/7 activation [2] | annexin V luminescence and necrosis fluorescence signals versus untreated cells [3] | IC50 at 24 h [4] [µg/mL] | MBC [8, 18] [µg/mL] | MBC [9, 19] [µg/mL] | MBC [10, 20] [µg/mL] | effect on colon adenocarcinoma cells (viability, MTT) [11] | MIC [7] | MIC [6] [µg/mL] | MBC [9] [µg/mL] | further results |
| --- | --- | --- | --- | --- | --- | --- | --- | --- | --- | --- | --- | --- | --- | --- | --- | --- | --- |
| >512 (>512) µg/mL | > 512 | > 512 | 64 (≈ 145 µM) |  | CCCCCCOc1ccc([C@@H]2CC(=O)c3c(O)cc(OCCCCCC)cc3O2)cc1 [A2, 7,4′-di-O-hexylnaringenin] | > 100 | neither membrane switching of phosphatidylserine nor caspase activation was observed | both signals were similar to those for untreated cells | > 100 | > 512 | > 512 | > 512 | weak |  |  |  |  |
| >512 (>512) µg/mL | > 512 | > 512 | 512 (≈ 1200 µM) | 103 to 104 | CCCCCCCCCCCOc1cc(O)c2c(c1)O[C@H](c1ccc(O)cc1)CC2=O [A9, 7-O-Undecylnaringenin] | 10.2 ± 0.2 (≈ 23.8 µM) | significant caspase 3/7 activation was also detected | both signals were similar to those for untreated cells | 17.9 ± 0.65 (≈ 41.8 µM) | > 512 | > 512 | > 512 | completely inhibited | 512 (>512) µg/mL |  |  |  |
| >512 (>512) µg/mL | > 512 | > 512 | 256 (≈ 580 µM) | 171 to 173 | CCCCCCCCCCCOc1cc(O)c2c(c1)O[C@H](c1ccc(O)cc1)CC2=NO [B9, 7-O-Undecylnaringenin oxime] | 6.74 ± 0.84 (≈ 15.3 µM) | rapid activation of caspase 3/7 |  | 11.4 ± 1.17 (≈ 25.9 µM) | > 512 | > 512 | > 512 |  |  |  |  | time of caspase 3/7 activation [2]: ≤ 12 h; onset of loss of membrane integrity (fluorescence signal), time shift with respect to luminescence ([3]; HT-29, 50 µg/mL): more than 5 h; phosphatidylserine exposure (luminescent signal) on the outer side of the cell membrane ([3]; HT-29, 50 µg/mL): significantly increased; also recorded: increased the level of phosphatidylserine; reduction in cell viability ([11]; 10 µg/mL dose): more than 50% |
|  | 512 (≈ 1880 µM) | 512 (≈ 1880 µM) | > 512 |  | O=C1C[C@@H](c2ccc(O)cc2)Oc2cc(O)cc(O)c21 [NG, naringenin] | > 100 | neither membrane switching of phosphatidylserine nor caspase activation was observed | both signals were similar to those for untreated cells | > 100 | > 512 | > 512 | > 512 | weak |  | 512 (≈ 1880 µM) | > 512 |  |

| Structure (SMILES) | MIC [5] | MIC [5, 15] [µg/mL] | MIC [6, 16] [µg/mL] | MIC [7, 17] [µg/mL] | melting point [°C] | IC50 at 24 h [1] [µg/mL] | caspase 3/7 activation [2] | annexin V luminescence and necrosis fluorescence signals versus untreated cells [3] | IC50 at 24 h [4] [µg/mL] | MBC [8, 18] [µg/mL] | MBC [9, 19] [µg/mL] | MBC [10, 20] [µg/mL] | effect on colon adenocarcinoma cells (viability, MTT) [11] | MIC [7] | MIC [6] [µg/mL] | MBC [9] [µg/mL] | further results |
| --- | --- | --- | --- | --- | --- | --- | --- | --- | --- | --- | --- | --- | --- | --- | --- | --- | --- |
| O/N=C1\CC(c2ccc(O)cc2)Oc2cc(O)cc(O)c21 (centres unmarked) [NGOX, naringenin oxime, reference compound] | > 512 µg/mL |  |  |  |  |  |  | both signals were similar to those for untreated cells |  |  |  |  |  | 512 µg/mL (≈ 1780 µM) | 512 (≈ 1780 µM) | > 512 | Cytotoxicity (IC50 ± SD) [12]: 29.18 ± 2.00 µg/mL; IC50 [13]: 175 µg/mL (≈ 609 µM); Cytotoxicity (IC50 ± SD) [14]: >100 µg/mL; MBC [8]: > 512 µg/mL; MBC [10]: > 512 µg/mL; reduction in cell viability ([11]; 100 µg/mL): more than 50% |
